Laboratory results from PubChem BioAssay (NCI).
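Results reflect a 48-hour exposure of cells in 96-well plates to compound at five concentrations. Abbreviation: GI50, concentration required for 50% inhibition of growth. Definition used: TGI = concentration required for complete inhibition of growth.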

Assays:
Assay in all cases: growth of human tumour cells (NCI), 48 h
CCRF-CEM leukemia = test system: CCRF-CEM leukemia
HCC-2998 colon = test system: HCC-2998 colon
LOX IMVI melanoma = test system: LOX IMVI melanoma
M14 melanoma = test system: M14 melanoma
MDA-MB-231 breast = test system: MDA-MB-231 breast
SK-MEL-2 melanoma = test system: SK-MEL-2 melanoma
SK-MEL-5 melanoma = test system: SK-MEL-5 melanoma
SN12C renal = test system: SN12C renal
SNB-75 CNS = test system: SNB-75 CNS
TK-10 renal = test system: TK-10 renal

Compound	TGI (CCRF-CEM leukemia) [µM]	TGI (HCC-2998 colon) [µM]	TGI (LOX IMVI melanoma) [µM]	TGI (M14 melanoma) [µM]	TGI (MDA-MB-231 breast) [µM]	TGI (SK-MEL-2 melanoma) [µM]	TGI (SK-MEL-5 melanoma) [µM]	TGI (SN12C renal) [µM]	TGI (SNB-75 CNS) [µM]	TGI (TK-10 renal) [µM]	GI50 (CCRF-CEM leukemia) [µM]	GI50 (HCC-2998 colon) [µM]	GI50 (LOX IMVI melanoma) [µM]	GI50 (M14 melanoma) [µM]	GI50 (MDA-MB-231 breast) [µM]	GI50 (SK-MEL-2 melanoma) [µM]	GI50 (SK-MEL-5 melanoma) [µM]	GI50 (SN12C renal) [µM]	GI50 (SNB-75 CNS) [µM]	GI50 (TK-10 renal) [µM]
COc1cc2c(NCCCCCCO[N+](=O)[O-])ncnc2c(OC)c1OC	67.8	17.2	49.3	36.8	38	53.9	25	> 71.5	99.3	49.4										
NS(=O)(=O)c1ccc(-n2nc(-c3ccc(Br)cc3)ccc2=O)cc1	> 10	> 10	> 10	> 10	> 10	> 10	> 10	> 10	> 10	> 10	> 10	> 10	> 10	> 10	> 10	> 10	> 10	> 10	> 10	> 10
COc1ccccc1NC(=O)c1ccc(/C=C/C(=O)c2nccn2C)cc1	8.01	0.912	0.605	1.31	9.25	10.8	1.68	1.56	1.09	9.53	0.669	0.487	0.278	0.536	0.835	1.9	0.648	0.592	0.342	0.811
COc1cc2c(c(OC)c1OC)-c1ccc(NCc3ccccc3)c(=O)cc1[C@@H](NC(C)=O)CC2	> 100	13.2	14.9	23.2	11.7	22.8	1.94	45.3	25.2	> 100	0.34	0.529	0.444	0.359	0.461	0.643	0.422	0.629	0.318	4.82
CN1CCN(Cc2ccc(NC(=O)c3cncc(C#Cc4cnc(N)c5ccccc45)c3)cc2C(F)(F)F)CC1	1.44	0.878	0.837	0.551	0.82	0.697	0.994	0.693	0.877	1	0.125	0.42	0.387	0.133	0.369	0.196	0.537	0.242	0.443	0.466
COc1nc2c(cc1S(=O)(=O)c1ccccc1)CCc1c-2cnn1-c1ccccc1Cl	> 100	> 100	> 100	> 100	> 100	> 100	> 100	> 100	> 100		7.84	> 100	> 100	> 100	5.16	71.7	3.31	19.6	5.19	
CCOc1ccc2nc(NC(=O)/C(CC(=O)CC(C3=C(O)c4ccccc4CC3=O)c3ccccc3)=N\O)sc2c1 (centres undefined)	> 100	> 100	> 100	> 100	> 100	> 100	> 100	> 100	> 100											
CN(C)S(=O)(=O)Nc1ccccn1		> 100	> 100	> 100	> 100	> 100	> 100	> 100	> 100	> 100										
Cc1c(N2C(=O)/C(=C\c3ccccc3O)N=C2c2ccccc2)c(=O)n(-c2ccccc2)n1C		> 100	> 100	> 100	> 100	> 100	> 100	> 100	40.3	> 100		> 100	62.3	> 100	41.9	> 100	62.3	> 100	15.7	33.4
Clc1cccc(NC=Nc2ccc(-c3nc4ccccc4s3)cc2)c1	25.4	42.5	17.5	29.7	23.6	> 50	21.6	> 50		> 50	10.5	16	9.46	14.8	9.72	18	10.5	20.4		21
Fc1ccc(-c2nn(-c3ccccc3)cc2-c2nc3ccccc3o2)cc1	> 100	> 100	12.4	15.1	67.3	28.3	19.3	33.5	33.4		3.43	7.98	2.36	3.91	8.47	9	5.72	6.15	9.89	
O=C1CCC(NC(=O)c2ccccc2)C(=O)N1 (centres undefined)		> 100	> 100	> 100	> 100	> 100	> 100	> 100	> 100	> 100										
